# Where two headings read alike, the source gives them in different places.
# Legend:
# [1] = parameters: species or system human; details: human, in vivo
# Description: Accumulated data have shown that maribavir is metabolized primarily in the liver, and renal clearance is a minor route (representing less than 5 percent). VP 44469 (N-dealkylated Maribavir) was the principal metabolite of maribavir in both urine and feces. In plasma, unchanged maribavir and VP 44469 represented approximately 69% and 9.8% of total radioactivity, respectively. The hepatic metabolism of maribavir was primarily driven by cytochrome P450s. CYP3A4 and CYP1A2 were responsible for 70 to 85% and 15 to 30% of the CYP-driven pathways, respectively. Glucuronidation accounted for less than 20% of metabolism.
# Distribution models evaluated included a full PBPK model and a minimal PBPK model, both of which consider liver and intestinal metabolism. Mass balance data from the [^14C] ADME study indicated a fraction absorbed of 0.83 or greater following oral administration of 400 mg dose of maribavir. Absorption models evaluated included a simple first-order absorption model and a more mechanistic “Advanced Dissolution Absorption and Metabolism” (ADAM) model.
# clinical = details: human, in vivo
# [2] = PBPK simulation of maribavir with rifampicin; parameters: species or system human
# Description: A comparison of observed and predicted plasma concentrations of maribavir following multiple oral doses of 400 mg administered in the absence of rifampicin and during concurrent treatment with rifampicin was performed. Subjects took maribavir 400 mg BID on Days 1-3 (5 doses), then rifampicin 600 mg QD on Days 4 through 12, followed by both maribavir 400 mg (BID) and rifampicin 600 mg QD on Days 13 and 14, with final doses of maribavir and rifampicin on the morning of Day 15. […]
# [3] = Observed clinical interaction of maribavir with rifampicin; assay type: in vivo, human; details: maribavir 400 mg BID with/without rifampicin 600 mg QD
# Description: A comparison of observed and predicted plasma concentrations of maribavir following multiple oral doses of 400 mg administered in the absence of rifampicin and during concurrent treatment with rifampicin was performed. Subjects took maribavir 400 mg BID on Days 1-3 (5 doses), then rifampicin 600 mg QD on Days 4 through 12, followed by both maribavir 400 mg (BID) and rifampicin 600 mg QD on Days 13 and 14, with final doses of maribavir and rifampicin on the morning of Day 15.
# [4] = Observed clinical interaction of maribavir with ketoconazole in healthy subjects; assay type: in vivo, human; details: for AUC(0-inf) / Cmax: human, in vivo, 400 mg
# Description: (§1) A comparison of observed and predicted plasma concentrations of maribavir following a single oral dose of 400 mg administered in the absence of ketoconazole (a CYP3A4 inhibitor) and 1 hour after a single 400 mg dose of ketoconazole to healthy subjects was performed.
# CYP3A4 mRNA = experiment: CYP induction (mRNA, qPCR) in fresh human hepatocytes; assay type: in vitro ADME
# Description: Fresh human hepatocytes were treated with culture medium with maribavir concentrations of 36 μM, 144 μM, and 480 μM.
# Positive controls were 50 μM omeprazole (CYP1A2), 1 mM phenobarbital (CYP2B6), and 50 μM rifampicin (CYP3A).
# Incubation was conducted at 37° C. for 72 hours, with daily replacement of medium with compound. Total RNA was isolated, and cDNA was synthesized from up to 1 μg of total isolated RNA. Analysis of CYP expression was performed using qPCR with CYP-specific probes.
# Half maximal effective concentration (EC50) and maximum effect (Emax) values for CYP3A4 mRNA induction were further determined by a concentration-response curve in three donors with maribavir at a concentration between 0-100 μM.
# [5] = Drug interaction summary: effect of co-administered drugs on maribavir pharmacokinetics (Tables 1-A, 1-B)
# Description: Drug interaction studies were summarized based on Example 2 and other available data (e.g., in vitro and clinical data).
# [6] = parameters: species or system human; details: in vivo
# Description: It can be taken with or without food, and no dose adjustment is needed in patients with mild-to-moderate hepatic impairment or renal impairment. Maribavir has a low drug-interaction potential and there are minimal dose adjustments required (for example, only when taken concurrently with CYP3A4 inducers or certain immunosuppressants) and there are no effects on QT interval.
# CYP3A = CYP3A (Homo sapiens, UniProt P08684); experiment: Time-dependent inhibition of CYP3A in HLM (IC50 shift and enzyme inactivation kinetics); assay type: in vitro ADME; parameters: from tissue; host or cells: human liver microsomes; details: human liver microsomes; for kinact: read-out: kinact (maximum enzyme inactivation rate constant), TDI of CYP3A (converted)
# Sequence of CYP3A (P08684 2-503): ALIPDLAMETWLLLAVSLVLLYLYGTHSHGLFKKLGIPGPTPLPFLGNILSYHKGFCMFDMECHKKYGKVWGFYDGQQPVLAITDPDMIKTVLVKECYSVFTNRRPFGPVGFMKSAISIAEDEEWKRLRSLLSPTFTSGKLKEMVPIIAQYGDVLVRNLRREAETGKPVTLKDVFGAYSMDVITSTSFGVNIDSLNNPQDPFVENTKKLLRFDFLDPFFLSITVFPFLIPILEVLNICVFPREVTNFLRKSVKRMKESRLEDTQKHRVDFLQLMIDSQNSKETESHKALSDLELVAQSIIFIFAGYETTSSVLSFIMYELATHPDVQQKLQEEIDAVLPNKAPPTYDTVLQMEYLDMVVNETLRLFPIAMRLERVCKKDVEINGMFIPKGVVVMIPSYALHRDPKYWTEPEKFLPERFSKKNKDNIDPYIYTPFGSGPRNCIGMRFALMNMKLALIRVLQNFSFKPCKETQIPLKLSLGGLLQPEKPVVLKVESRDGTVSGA
# Description: Time-dependent inhibition (TDI) potentials for various CYP enzymes were evaluated by a 30 minute pre-incubation of maribavir with HLM in the presence and absence of nicotinamide-adenine dinucleotide […] (NADPH) followed by a CYP enzyme activity assay.
# Enzyme inactivation kinetics of maribavir for the TDI of CYP3A, with midazolam and testosterone as probe substrates, was evaluated by pre-incubation of HLM with maribavir at various concentrations with NADPH for six different pre-incubation time frames. CYP3A activity was measured by determining the formation of CYP3A probe metabolite. Inhibitor concentration at half maximal enzyme inactivation (KI), and maximum enzyme inactivation rate constant (kinact), were estimated using non-linear least-square regression.
# [7] = PBPK simulation of maribavir with ketoconazole (CYP3A4 inhibitor); parameters: species or system human
# Description: as §1
# [8] = maribavir 400 mg BID + rifampicin 600 mg QD
# [9] = maribavir 400 mg BID with/without rifampicin 600 mg QD
# [10] = Aluminum hydroxide and magnesium hydroxide antacid 20 mL single dose, maribavir 100 mg single dose
# [11] = Ketoconazole 400 mg single dose, maribavir 400 mg single dose
# [12] = Rifampin 600 mg once daily, maribavir 400 mg twice daily
# [13] = maribavir 400 mg single dose 1 hour after ketoconazole 400 mg
structure (smiles),measurement,setting,value
"CC(C)Nc1nc2cc(Cl)c(Cl)cc2n1[C@H]1O[C@@H](CO)[C@H](O)[C@@H]1O [maribavir, (2S,3S,4R,5S)-2-(5,6-dichloro-2-(isopropylamino)-1H-benzo[d]imidazol-1-yl)-5-(hydroxymethyl)tetrahydrofuran-3,4-diol]",contribution of CYP1A2 to the CYP-driven pathways,[1],15-30%
same,contribution of CYP3A4 to the CYP-driven pathways,[1],70-85%
same,share of metabolism by glucuronidation,[1],less than 20%
same,share of total radioactivity in plasma,[1],approximately 69%
same,half-life,clinical,5 to 7 h
same,CL renal,clinical; po,0.85 mL/min
same,effect of crushing the tablet or antacids on bioavailability,clinical; po,wasn't affected
same,effect of food on exposure,clinical; po,unaffected
same,time to peak concentrations,clinical; po,1 to 3 h
same,"AUC(0-12 h), RATIO GEOMETRIC MEAN PREDICTED/OBSERVED",[2]; [8],0.88
same,"AUC(0-12 h), RATIO MEAN PREDICTED/OBSERVED",[2]; [8],1.00
same,"C12 h, RATIO GEOMETRIC MEAN PREDICTED/OBSERVED",[2]; [8],0.22
same,"C12 h, RATIO MEAN PREDICTED/OBSERVED",[2]; [8],0.83
same,"Cmax, RATIO GEOMETRIC MEAN PREDICTED/OBSERVED",[2]; [8],0.75
same,"Cmax, RATIO MEAN PREDICTED/OBSERVED",[2]; [8],0.78
same,"Ratio AUC(0-12 h), RATIO GEOMETRIC MEAN PREDICTED/OBSERVED",[2]; [9],0.85
same,"Ratio AUC(0-12 h), RATIO MEAN PREDICTED/OBSERVED",[2]; [9],0.91
same,"Ratio C12 h, RATIO GEOMETRIC MEAN PREDICTED/OBSERVED",[2]; [9],0.24
same,"Ratio C12 h, RATIO MEAN PREDICTED/OBSERVED",[2]; [9],0.56
same,"Ratio Cmax, RATIO GEOMETRIC MEAN PREDICTED/OBSERVED",[2]; [9],0.89
same,"Ratio Cmax, RATIO MEAN PREDICTED/OBSERVED",[2]; [9],0.87
same,"Ratio AUC(0-12 h), observed Mean",[3],0.41
same,"Ratio C12 h, observed Mean",[3],0.17
same,"Ratio Cmax, observed Mean",[3],0.65
same,AUC(0-inf),[4]; observed Geometric mean,183 µg·h/mL
same,AUC(0-inf),[4]; observed Mean,194 µg·h/mL
same,Cmax,[4]; observed Geometric mean,21300 ng/mL
same,Cmax,[4]; observed Mean,21800 ng/mL
same,"Ratio AUC(0-∞), observed Geometric mean",[4]; with/without ketoconazole,1.53
same,"Ratio AUC(0-∞), observed Mean",[4]; with/without ketoconazole,1.55
same,"Ratio Cmax, observed Geometric mean",[4]; with/without ketoconazole,1.10
same,"Ratio Cmax, observed Mean",[4]; with/without ketoconazole,1.12
same,fold increase in CYP3A4 mRNA induction,"CYP3A4 mRNA; 36 μM maribavir, human hepatocytes",greater than 14 fold
same,EC50 at 72 h,CYP3A4 mRNA; human,> 5 µM
same,"CYP3A4 mRNA induction, % of positive control (rifampicin) levels","CYP3A4 mRNA; human, hepatocytes, 72 h, 36 μM",greater than 30%
same,"Geometric Mean Ratio of Maribavir PK with/without Co-administered Drug (No Effect = 1.00), AUC",[5]; [10],0.89
same,"Geometric Mean Ratio of Maribavir PK with/without Co-administered Drug (No Effect = 1.00), Cmax",[5]; [10],0.84
same,"Geometric Mean Ratio of Maribavir PK with/without Co-administered Drug (No Effect = 1.00), AUC",[5]; [11],1.53
same,"Geometric Mean Ratio of Maribavir PK with/without Co-administered Drug (No Effect = 1.00), Cmax",[5]; [11],1.10
same,"Geometric Mean Ratio of Maribavir PK with/without Co-administered Drug (No Effect = 1.00), AUC",[5]; [12],0.40
same,"Geometric Mean Ratio of Maribavir PK with/without Co-administered Drug (No Effect = 1.00), Cmax",[5]; [12],0.61
same,"Geometric Mean Ratio of Maribavir PK with/without Co-administered Drug (No Effect = 1.00), Ctau","[5]; Rifampin 600 mg once daily, maribavir 400 mg twice daily, tau 12 hours",0.18
same,effects on QT interval,[6],no effects
same,KI (inactivation),CYP3A; probe midazolam,41.2 µM
same,kinact,"CYP3A; probe midazolam, midazolam as substrate",0.000195 s⁻¹
same,KI (inactivation),CYP3A; probe testosterone,167 µM
same,kinact,"CYP3A; probe testosterone, testosterone as substrate",0.000595 s⁻¹
same,"AUC(0-∞), GEOMEAN RATIO PREDICTED/OBSERVED",[7]; [13],0.77
same,"AUC(0-∞), MEAN RATIO PREDICTED/OBSERVED",[7]; [13],0.78
same,"Cmax, GEOMEAN RATIO PREDICTED/OBSERVED",[7]; [13],0.65
same,"Cmax, MEAN RATIO PREDICTED/OBSERVED",[7]; [13],0.66
same,"Ratio AUC(0-∞), GEOMEAN RATIO PREDICTED/OBSERVED",[7]; with/without ketoconazole,1.00
same,"Ratio AUC(0-∞), MEAN RATIO PREDICTED/OBSERVED",[7]; with/without ketoconazole,0.99
same,"Ratio Cmax, GEOMEAN RATIO PREDICTED/OBSERVED",[7]; with/without ketoconazole,1.06
same,"Ratio Cmax, MEAN RATIO PREDICTED/OBSERVED",[7]; with/without ketoconazole,1.05

# — US12447170B2, “Use of maribavir in treatment regimens” (priority 2021, dated 2025)
